Measurements published in ChEMBL document CHEMBL1201862, “PubChem BioAssay data set” (2004).
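Assay format: 96-well plates, 48-hour exposure. Here, GI50 denotes the concentration required for 50% inhibition of growth.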 Activity calls are given as the source filed them. No stated cut-off is given here; in the data, active = GI50 up to about 1.1 µM and inactive = higher.

Key:
Assay in all cases: NCI anticancer screen, dose series, 48 h
A549 = tested on: A549
ACHN = tested on: ACHN
HCC 2998 = tested on: HCC 2998
LOX IMVI = tested on: LOX IMVI
M14 = tested on: M14
MCF7 = tested on: MCF7
MDA-N = tested on: MDA-N
MOLT-4 = tested on: MOLT-4
Malme-3M = tested on: Malme-3M
OVCAR-3 = tested on: OVCAR-3
OVCAR-5 = tested on: OVCAR-5
SK-MEL-28 = tested on: SK-MEL-28
SK-MEL-5 = tested on: SK-MEL-5
SK-OV-3 = tested on: SK-OV-3
SN12C = tested on: SN12C
U-251 = tested on: U-251
UACC-257 = tested on: UACC-257
UACC-62 = tested on: UACC-62
UO-31 = tested on: UO-31
HOP-92 = tested on: HOP-92

Row | Structure (SMILES) | GI50 (A549) | GI50 (ACHN) | GI50 (HCC 2998) | GI50 (LOX IMVI) | GI50 (M14) | GI50 (MCF7) | GI50 (MDA-N) | GI50 (MOLT-4) | GI50 (Malme-3M) | GI50 (OVCAR-3) | GI50 (OVCAR-5) | GI50 (SK-MEL-28) | GI50 (SK-MEL-5) | GI50 (SK-OV-3) | GI50 (SN12C) | GI50 (U-251) | GI50 (UACC-257) | GI50 (UACC-62) | GI50 (UO-31) | GI50 (HOP-92)
1 | CC(C)(C)NC(=O)CCC1C(C(=O)NC(C)(C)C)C2(Cl)C(Cl)=C(Cl)C1(Cl)C2(Cl)Cl (configuration not stated) | > 100 µM (inactive) | > 100 µM (inactive) | > 100 µM (inactive) | > 100 µM (inactive) | > 100 µM (inactive) | > 100 µM (inactive) | > 100 µM (inactive) | > 100 µM (inactive) | > 100 µM (inactive) | > 100 µM (inactive) | > 100 µM (inactive) | > 100 µM (inactive) | > 100 µM (inactive) | > 100 µM (inactive) | > 100 µM (inactive) | > 100 µM (inactive) | > 100 µM (inactive) | > 100 µM (inactive) | > 100 µM (inactive) | –
2 | CN(C)CCNC1=Nc2ccccc2C(=S)N2CSCC12 (configuration not stated) | > 100 µM (inactive) | > 100 µM (inactive) | > 100 µM (inactive) | > 100 µM (inactive) | > 100 µM (inactive) | > 100 µM (inactive) | > 100 µM (inactive) | > 100 µM (inactive) | > 100 µM (inactive) | > 100 µM (inactive) | > 100 µM (inactive) | > 100 µM (inactive) | > 100 µM (inactive) | > 100 µM (inactive) | > 100 µM (inactive) | > 100 µM (inactive) | > 100 µM (inactive) | > 100 µM (inactive) | 58.2 µM (inactive) | –
3 | Cc1c(NC(=S)NN)c(=O)n(-c2ccccc2)n1C | > 100 µM (inactive) | – | – | > 100 µM (inactive) | > 100 µM (inactive) | > 100 µM (inactive) | > 100 µM (inactive) | > 100 µM (inactive) | 32.3 µM (inactive) | > 100 µM (inactive) | > 100 µM (inactive) | > 100 µM (inactive) | > 100 µM (inactive) | > 100 µM (inactive) | > 100 µM (inactive) | > 100 µM (inactive) | > 100 µM (inactive) | > 100 µM (inactive) | > 100 µM (inactive) | –
4 | Cc1ccc(/C=C2/N/C(=N\N=C/c3ccccc3)NC2=O)cc1 | 44.2 µM (inactive) | 17.3 µM (inactive) | 28.9 µM (inactive) | 39.1 µM (inactive) | 31.7 µM (inactive) | 28.8 µM (inactive) | 28.2 µM (inactive) | 21.9 µM (inactive) | 42.5 µM (inactive) | 44.8 µM (inactive) | > 100 µM (inactive) | 36.4 µM (inactive) | 35 µM (inactive) | 40.3 µM (inactive) | 45.7 µM (inactive) | 26 µM (inactive) | > 100 µM (inactive) | – | 18.4 µM (inactive) | –
5 | CCN(CC)C(=S)SS(=O)(=O)c1ccc(NC(C)=O)cc1 | 2.21 µM (inactive) | 36.1 µM (inactive) | 31.6 µM (inactive) | 15.9 µM (inactive) | 17.1 µM (inactive) | – | 27.6 µM (inactive) | – | 15.9 µM (inactive) | 31.7 µM (inactive) | 24.5 µM (inactive) | 17.3 µM (inactive) | 0.778 µM (active) | 40.5 µM (inactive) | 18.2 µM (inactive) | 18 µM (inactive) | 21.8 µM (inactive) | 19.9 µM (inactive) | 19.5 µM (inactive) | 19.8 µM (inactive)
6 | O=C1NCC2(CCNCC2)N1 | > 100 µM (inactive) | > 100 µM (inactive) | > 100 µM (inactive) | > 100 µM (inactive) | > 100 µM (inactive) | > 100 µM (inactive) | – | > 100 µM (inactive) | > 100 µM (inactive) | – | > 100 µM (inactive) | > 100 µM (inactive) | > 100 µM (inactive) | > 100 µM (inactive) | > 100 µM (inactive) | > 100 µM (inactive) | > 100 µM (inactive) | > 100 µM (inactive) | > 100 µM (inactive) | > 100 µM (inactive)
7 | O=C(NNc1ccc([N+](=O)[O-])cc1[N+](=O)[O-])/C(O)=C\C(=O)c1ccccc1 | 17.6 µM (inactive) | 23.1 µM (inactive) | 16.4 µM (inactive) | 24.5 µM (inactive) | 14.3 µM (inactive) | 29.4 µM (inactive) | 27.9 µM (inactive) | 17.7 µM (inactive) | 30 µM (inactive) | – | 19.7 µM (inactive) | 23.5 µM (inactive) | 20.7 µM (inactive) | 18.6 µM (inactive) | 16.5 µM (inactive) | 14.9 µM (inactive) | 29 µM (inactive) | 15.5 µM (inactive) | 14.3 µM (inactive) | –
